According to patent US20260258083A1, “T Cell Engager Masking Molecules” (AMGEN INC., priority 2023, published 2026):
Where no end group is shown, it is not given here. [ ]: non-standard residue; d: D form. pGlu = O=C1CC[C@@H](C(=O)O)N1

Assays:
[1] = system: FLT3×CD3 TCE (SEQ ID NO: 93); test: Association kinetics by KinExA (Table 5); assay type: binding; conditions: KinExA, FLT3×CD3 TCE
Description: • 1. Preparation of NHS-activated sepharose fast-flow beads: • 2. Fast flow sepharose suspension in 100% IPA, washed twice with milliQ H20, mild centrifugation to pool beads in between wash steps. • 3. Equilibrated in 0.15 M NaBO3, pH=8.5 buffer • 4. Added 80 mM PDEA to activate the resin for thiol exchange, 10 mins, r.t. • 5. Equilibrated resin with Hepes Buffered Saline-P (0.01 M HEPES pH 7.4, 0.15 M NaCl, 0.005% v/v Surfactant P2), pH 7.4 binding buffer • 6. Added 30 μg/mL of binding peptide, […] (SEQ ID NO; 297) or pGlu-[…] (SEQ ID NO: 300), reaction for 1 hr to functionalize resin. • 7. Quench with 10 mM L-Cys for 1 hour. • 8. Constant Binding Partner was FLT3×CD3 TCE (SEQ ID NO: 93), MW 105720, 3.2 mg/mL 31.21 uM was diluted to 333 pM and the pGlu-[…] peptide or pGlu-[…]-PEG (Pep-PEG v2) were titrated from 1 uM or 400 nM down to 2.3 pM concentrations relative to effective peptide molarity.
Association Kinetics by KinExA

[2] = 2nd mouse PK study, IV bolus (Example 3); assay type: in vivo; conditions: BL/6 mice, IV bolus 5 mg/kg, plasma
Description: Example 3: 2nd Mouse PK Study
A second PK study was conducted in BL/6 mice to evaluate the plasma pharmacokinetics of the masking peptide in 8-arm (octavalent), 40 kDa PEG form. Both CD3ε PepPOL, v1 (40 kDa) and CD3ε PepPOL, v1 (20 kDa) (see Table 6 for sequences) were administered to mice by IV bolus at 5 mg/kg dose level and the results are shown in Fig. XX. […] The terminal elimination half-lives were estimated to be between 90 min and 120 min for the 20 kDa or 40 kDa CD3ε PepPOL, v1 forms, respectively.

muCD19 TCE = muCD19 TCE + CD3ε PepPOL, v1 co-administration pilot study, cytokines and CD19+ B cell depletion (Example 6); assay type: in vivo, huCD3ε TCR KI mice; conditions: ≥1000× molar overage with 100 μg/kg muCD19 TCE
Description: Example 6: Study muCD19 TCE+CD3ε PepPOL, v1 Co-Administration in huCD3ε TCR KI Mouse Model. 100 ug/kg IV Dose Murine Anti-muCD19 TCE Investigated >2300X
An initial pilot study in huCD3ε TCR KI mice was conducted to establish the desired PD effect with CD3ε PepPol v1. Here, CD3ε PepPol, v1 was co-administered at ≥1000× molar overage (peptide:TCE) with 100 μg/kg muCD19 TCE.

[3] = Mouse pharmacokinetic study, IV (Example 2); conditions: BL/6 mice, IV, 0.82 or 8.2 mg/kg, plasma total intact peptide
Description: Example 2: Mouse Pharmacokinetic Study to Evaluate In Vivo PK
The 4-arm 20 kDa PepPOL conjugate was dosed by IV administration to BL/6 mice at 0.82 or 8.2 mg/kg dose levels. […] The PK profiles for each peptide were evaluated by quantifying plasma concentrations of total intact peptide material over time (see methods).

[4] = C57BL/6 mice, single dose, non-linear one-phase decay fitting
Text: Example 4: TCE Masking Molecule in PK Mouse Study
To further understand the in vivo behavior of the pyro-Glu containing dimeric p-[…]

CD20 TCE = CD20 TCE + CD3ε PepPOL, v2 PK/PD study 157130 (Example 10); assay type: in vivo, cynomolgus monkeys
Description: Example 10: Cynomolgus Study CD20 TCE (0.010 mg/kg)+CD3ε PepPOL, v2 (+25× (0.016 mg/kg), +250× (0.16 mg/kg) Co-Administration in Cynomolgus Monkeys
PK/PD study 157130 was an exploratory dose-ranging study conducted in cynomolgus monkeys aimed to establish activity of a ‘high affinity’ CD3ε PepPOL, v2 when co-administered with CD20 TCE. Primary study endpoints included: cytokine release, CD20+ B cell lysis, T cell activation, and clinical chemistry end points typically associated with CRS (e.g., CRP). CD20 TCE was dosed at 10 ug/kg alone, or in combination with CD3ε PepPOL, v2 at 0.016 mg/kg (25× molar excess CD3ε peptide), or 0.160 mg/kg (250× molar excess CD3ε peptide). A summary of the results is described below.
Serum cytokines MCP-1, IL-6, TNFα, IFNγ, and IL-2 were assessed by multiplex sandwich immunoassay at multiple time points from 0-168 hours post dose.

[5] = system: anti-CD3ε paratope of a CD3ε binding domain of a TCE; test: Affinity class of the binding peptide of the masking molecule
Text: The exact value may vary with the respective TCE. However, the […]

[6] = system: STEAP1×CD3e heterodimeric TCE; test: T cell dependent cellular cytotoxicity (TDCC) assay, inhibition of TCE cytotoxicity; assay type: cell-based; conditions: STEAP1×CD3, CLDN6×CD3 and DLL3×CD3 TCE; PBMC E:T 10:1, 48 hours
Description: Example 12: In Vitro Cytotoxicity and Cytokine Release Inhibition by Binding Peptides
In vitro potency of CD3e pepPEG was indirectly assessed by measuring in vitro activity of T cell engager (TCE) using T cell dependent cellular cytotoxicity (TDCC) assay. […] Cytokine production was assessed in supernatants from TDCC assays using electro-chemiluminescence assays (MesoScale Discovery).

FLT3xCD3 TCE = test: SPR solution assay of competition binding with TCE
Description: (§1) SPR Solution Assay of Competition Binding with TCE
(§2) As it can be derived from table 6,
(§3) A high affinity SPR ‘capture’ surface was first constructed to facilitate the SPR analysis of pre-equilibrated peptide analyte+TCE solutions. Briefly, a Cytiva CM5 chip was functionalized with PDEA (2-(2-pyridinyldithio)ethaneamine) under standard EDC/NHS coupling conditions where the PDEA is dissolved to 20 mM 2-(2-pyridinyldithio)ethaneamine and 1 M NaCl in 0.1 M sodium acetate pH 4.3, 6 peptide including p[…] (ID 14974, SEQ ID NO 304) were tested:
(§4) Respective peptide was dissolved to between 50 and 100-ug/mL for injection over the activated CM5 surface in PBST, pH 6.5, and coupling times were optimized to yield the desired surface density (~300RU).
(§5) For the binding assessment, Individual binding isotherms were constructed by titrating the respective peptide of interest into a fixed concentration of TCE-containing solution in PBST. At least 4 hrs equilibration time were allotted (r.t.) prior to analysis by SPR. For the analysis, a calibration curve was first constructed of the TCE analyte being assessed. For analysis of the TCE+peptide mixtures, the samples were injected (10 uL/min) over the previously prepared capture surface for 90 seconds, where the SPR response (RU) was recorded at the end of the injection and referenced to the previously prepared standard curve to derive an estimate of the ‘free’ TCE concentration in the presence of peptide analyte. The ‘free’ TCE concentration measured was plotted as a function of log peptide concentration and fit using non-linear regression analysis to a 4 parameter logistic function to derive an IC50.

STEAP1xCD3 TCE = test: SPR solution assay of competition binding with TCE
Description: as §1, §2, §3, §4, §5

[7] = system: CDH3-CD3-MSLN-CD3 TCE (SEQ ID NO 255); test: SPR assay of immobilized peptides binding with TCE
Description: (§6) Example 14: SPR Assay of Immobilized Peptides Binding with TCE
(§7) A cytiva CM5 chip was first functionalized with PDEA (2-(2pyridinyldithio)ethaneamine) under standard ((1-ethyl-3-(3-dimethylaminopropyl)carbodiimide)/(N-hydroxysuccinimide) EDC/NHS coupling conditions where the PDEA is dissolved to 20 mM and 1 M NaCl in 0.1 M sodium acetate pH 4.3. Binding peptides were dissolved to 50- or 100-ug/mL respectively in PBST, pH 6.5, and coupling times were optimized to yield the desired surface density.

[8] = system: CLDN6xCD3 TCE SEQ ID NO 340; test: SPR assay of immobilized peptides binding with TCE; conditions: immobilized peptide, Kinetic 1:1 Binding
Description: as §6, §7

[9] = molecular target: DLL3xCD3 TCE SEQ ID NO 104; test: SPR assay of immobilized peptides binding with TCE; conditions: immobilized peptide, Kinetic 1:1 Binding
Description: as §6, §7

[10] = molecular target: FLT3xCD3 TCE SEQ ID NO 93; test: SPR assay of immobilized peptides binding with TCE; conditions: immobilized peptide, Kinetic 1:1 Binding
Description: as §6, §7

[11] = molecular target: Steap 1xCD3 TCE SEQ ID NO 373 + 374 + 375; test: SPR assay of immobilized peptides binding with TCE; conditions: immobilized peptide, Kinetic 1:1 Binding
Description: as §6, §7

Chain of FLT3xCD3 TCE SEQ ID NO 93 (as listed by the source): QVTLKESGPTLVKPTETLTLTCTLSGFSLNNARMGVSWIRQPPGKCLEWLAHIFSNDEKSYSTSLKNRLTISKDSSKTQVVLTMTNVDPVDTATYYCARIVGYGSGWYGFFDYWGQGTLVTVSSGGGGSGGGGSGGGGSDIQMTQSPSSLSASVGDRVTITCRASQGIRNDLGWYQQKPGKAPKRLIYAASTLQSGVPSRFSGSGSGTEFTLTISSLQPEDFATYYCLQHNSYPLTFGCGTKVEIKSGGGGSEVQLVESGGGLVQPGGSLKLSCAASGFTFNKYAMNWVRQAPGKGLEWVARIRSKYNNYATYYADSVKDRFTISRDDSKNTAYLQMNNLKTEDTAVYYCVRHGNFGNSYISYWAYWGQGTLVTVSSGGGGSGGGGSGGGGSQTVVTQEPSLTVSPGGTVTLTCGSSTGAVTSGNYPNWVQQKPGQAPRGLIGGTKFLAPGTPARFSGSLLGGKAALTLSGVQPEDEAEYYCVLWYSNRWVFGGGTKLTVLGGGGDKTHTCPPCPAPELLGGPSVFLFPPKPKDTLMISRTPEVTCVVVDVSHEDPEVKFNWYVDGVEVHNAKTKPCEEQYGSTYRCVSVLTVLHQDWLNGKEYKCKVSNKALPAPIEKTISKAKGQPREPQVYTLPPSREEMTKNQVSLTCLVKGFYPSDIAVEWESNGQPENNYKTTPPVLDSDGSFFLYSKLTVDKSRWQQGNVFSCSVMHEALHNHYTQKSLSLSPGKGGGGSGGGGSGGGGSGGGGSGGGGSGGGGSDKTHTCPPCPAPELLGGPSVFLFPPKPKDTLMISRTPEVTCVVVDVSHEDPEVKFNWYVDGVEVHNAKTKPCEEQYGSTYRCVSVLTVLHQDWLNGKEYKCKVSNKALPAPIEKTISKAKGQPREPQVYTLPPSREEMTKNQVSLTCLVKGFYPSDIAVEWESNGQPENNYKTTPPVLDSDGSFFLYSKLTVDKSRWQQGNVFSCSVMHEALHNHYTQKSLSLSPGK
Chain of Steap 1xCD3 TCE SEQ ID NO 373 + 374 + 375 (as listed by the source): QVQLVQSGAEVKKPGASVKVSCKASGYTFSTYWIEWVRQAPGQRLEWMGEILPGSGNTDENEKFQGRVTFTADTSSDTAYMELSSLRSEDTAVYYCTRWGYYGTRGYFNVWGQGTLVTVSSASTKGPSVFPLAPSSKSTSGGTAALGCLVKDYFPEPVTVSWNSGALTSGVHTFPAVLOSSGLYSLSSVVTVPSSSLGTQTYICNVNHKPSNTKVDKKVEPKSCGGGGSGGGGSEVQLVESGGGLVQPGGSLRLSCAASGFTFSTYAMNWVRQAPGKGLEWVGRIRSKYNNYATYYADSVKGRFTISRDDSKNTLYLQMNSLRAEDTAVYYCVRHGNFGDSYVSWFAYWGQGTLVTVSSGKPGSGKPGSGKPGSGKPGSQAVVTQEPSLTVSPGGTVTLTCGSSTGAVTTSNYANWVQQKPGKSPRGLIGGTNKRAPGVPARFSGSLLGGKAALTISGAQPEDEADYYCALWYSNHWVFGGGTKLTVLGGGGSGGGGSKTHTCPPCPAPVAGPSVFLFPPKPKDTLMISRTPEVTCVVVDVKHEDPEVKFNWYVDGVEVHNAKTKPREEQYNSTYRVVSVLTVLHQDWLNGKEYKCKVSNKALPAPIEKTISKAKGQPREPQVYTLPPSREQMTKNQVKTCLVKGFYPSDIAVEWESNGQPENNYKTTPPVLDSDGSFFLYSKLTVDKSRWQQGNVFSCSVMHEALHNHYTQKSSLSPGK
Chain of Steap 1xCD3 TCE SEQ ID NO 373 + 374 + 375 (as listed by the source partner): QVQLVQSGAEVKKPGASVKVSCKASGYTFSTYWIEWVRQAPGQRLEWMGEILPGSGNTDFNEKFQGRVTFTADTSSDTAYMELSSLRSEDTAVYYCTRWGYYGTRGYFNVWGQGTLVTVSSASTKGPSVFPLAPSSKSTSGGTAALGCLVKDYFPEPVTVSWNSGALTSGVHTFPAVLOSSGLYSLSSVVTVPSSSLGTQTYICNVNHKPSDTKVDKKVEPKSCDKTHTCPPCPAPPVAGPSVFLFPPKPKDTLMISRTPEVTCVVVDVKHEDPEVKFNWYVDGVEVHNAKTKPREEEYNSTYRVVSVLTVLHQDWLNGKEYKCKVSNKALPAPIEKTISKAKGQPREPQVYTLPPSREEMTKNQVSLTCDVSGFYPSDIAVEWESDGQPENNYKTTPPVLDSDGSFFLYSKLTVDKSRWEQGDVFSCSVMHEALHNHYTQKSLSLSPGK
Chain of Steap 1xCD3 TCE SEQ ID NO 373 + 374 + 375 (as listed by the source partner): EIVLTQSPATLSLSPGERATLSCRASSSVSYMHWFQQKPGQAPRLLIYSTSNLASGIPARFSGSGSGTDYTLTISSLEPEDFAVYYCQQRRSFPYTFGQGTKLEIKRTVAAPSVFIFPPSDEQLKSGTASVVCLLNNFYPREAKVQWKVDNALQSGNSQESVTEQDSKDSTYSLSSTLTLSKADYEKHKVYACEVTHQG
Chain of CDH3-CD3-MSLN-CD3 TCE (SEQ ID NO 255) (as listed by the source): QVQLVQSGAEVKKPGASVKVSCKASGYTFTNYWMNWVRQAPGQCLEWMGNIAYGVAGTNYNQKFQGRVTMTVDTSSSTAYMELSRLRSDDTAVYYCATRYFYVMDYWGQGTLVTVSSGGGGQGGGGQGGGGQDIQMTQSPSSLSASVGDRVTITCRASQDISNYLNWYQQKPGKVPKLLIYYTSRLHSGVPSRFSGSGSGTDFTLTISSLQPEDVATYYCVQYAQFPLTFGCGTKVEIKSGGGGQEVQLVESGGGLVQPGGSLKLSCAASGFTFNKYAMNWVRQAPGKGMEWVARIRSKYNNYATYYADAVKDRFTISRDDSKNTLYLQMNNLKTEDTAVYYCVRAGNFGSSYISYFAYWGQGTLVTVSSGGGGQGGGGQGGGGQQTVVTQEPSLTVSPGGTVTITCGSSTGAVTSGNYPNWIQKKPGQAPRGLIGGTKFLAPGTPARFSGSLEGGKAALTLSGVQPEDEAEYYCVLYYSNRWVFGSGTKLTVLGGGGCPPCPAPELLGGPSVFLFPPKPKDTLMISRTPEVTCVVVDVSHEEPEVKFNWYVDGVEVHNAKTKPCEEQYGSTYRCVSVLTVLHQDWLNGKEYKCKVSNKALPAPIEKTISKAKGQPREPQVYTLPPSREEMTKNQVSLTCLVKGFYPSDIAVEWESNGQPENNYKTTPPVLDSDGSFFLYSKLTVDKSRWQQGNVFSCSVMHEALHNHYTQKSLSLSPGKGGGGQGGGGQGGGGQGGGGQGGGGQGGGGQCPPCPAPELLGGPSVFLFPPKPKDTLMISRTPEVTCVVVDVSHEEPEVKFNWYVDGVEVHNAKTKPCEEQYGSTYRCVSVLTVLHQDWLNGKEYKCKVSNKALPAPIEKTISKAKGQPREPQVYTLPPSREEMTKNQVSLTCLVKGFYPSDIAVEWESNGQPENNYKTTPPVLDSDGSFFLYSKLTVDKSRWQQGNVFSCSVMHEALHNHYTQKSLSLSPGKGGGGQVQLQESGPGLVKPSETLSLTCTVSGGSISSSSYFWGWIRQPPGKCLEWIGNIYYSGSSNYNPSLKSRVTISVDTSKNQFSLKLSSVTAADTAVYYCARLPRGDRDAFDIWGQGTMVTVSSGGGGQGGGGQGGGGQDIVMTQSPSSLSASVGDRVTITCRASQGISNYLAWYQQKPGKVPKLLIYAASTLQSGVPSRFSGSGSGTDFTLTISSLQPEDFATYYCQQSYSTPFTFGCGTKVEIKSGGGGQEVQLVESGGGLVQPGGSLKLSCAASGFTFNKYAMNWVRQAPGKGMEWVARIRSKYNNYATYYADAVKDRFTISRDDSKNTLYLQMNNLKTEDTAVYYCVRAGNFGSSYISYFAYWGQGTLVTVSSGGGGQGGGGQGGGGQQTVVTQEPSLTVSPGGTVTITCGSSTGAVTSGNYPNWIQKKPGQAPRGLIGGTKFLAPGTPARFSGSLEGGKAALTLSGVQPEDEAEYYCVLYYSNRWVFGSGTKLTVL
Chain of DLL3xCD3 TCE SEQ ID NO 104 (as listed by the source): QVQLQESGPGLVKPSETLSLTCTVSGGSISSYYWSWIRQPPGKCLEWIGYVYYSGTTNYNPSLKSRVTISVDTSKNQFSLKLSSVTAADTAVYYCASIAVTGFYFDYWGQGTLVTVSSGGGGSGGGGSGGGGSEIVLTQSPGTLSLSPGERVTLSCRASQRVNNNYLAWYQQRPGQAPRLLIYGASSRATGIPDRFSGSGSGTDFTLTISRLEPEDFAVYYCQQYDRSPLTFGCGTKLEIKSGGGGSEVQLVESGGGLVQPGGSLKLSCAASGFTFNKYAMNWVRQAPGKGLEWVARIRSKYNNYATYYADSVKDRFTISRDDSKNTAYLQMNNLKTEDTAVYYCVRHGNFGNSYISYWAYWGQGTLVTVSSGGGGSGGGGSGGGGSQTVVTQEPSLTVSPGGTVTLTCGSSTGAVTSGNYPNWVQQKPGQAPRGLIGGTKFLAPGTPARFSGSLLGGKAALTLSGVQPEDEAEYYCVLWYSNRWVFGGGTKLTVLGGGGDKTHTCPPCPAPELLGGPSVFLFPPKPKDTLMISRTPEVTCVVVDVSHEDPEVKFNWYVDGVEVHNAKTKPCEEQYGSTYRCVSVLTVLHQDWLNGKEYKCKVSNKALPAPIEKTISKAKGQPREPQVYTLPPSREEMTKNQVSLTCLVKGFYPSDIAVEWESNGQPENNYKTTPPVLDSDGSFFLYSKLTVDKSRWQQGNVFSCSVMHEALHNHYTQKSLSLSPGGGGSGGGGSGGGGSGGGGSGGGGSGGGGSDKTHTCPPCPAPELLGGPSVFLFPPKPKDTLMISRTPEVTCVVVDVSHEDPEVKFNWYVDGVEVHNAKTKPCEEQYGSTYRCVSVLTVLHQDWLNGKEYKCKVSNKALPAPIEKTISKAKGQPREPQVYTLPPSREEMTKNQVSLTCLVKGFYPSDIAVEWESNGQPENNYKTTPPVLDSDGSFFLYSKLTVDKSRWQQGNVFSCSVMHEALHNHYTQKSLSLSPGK

In the case of “(QDGNEEMGKGMEENGDQC)4 - PEG(20 kDa) (also: four copies conjugated to PEG 20 kDa)”, the “koff” value [1] is reported as 0.0047 s⁻¹, the terminal elimination half-lives [2] is reported as roughly 90 min and the “PD effect with respect to CD19+ B cell depletion” value (muCD19 TCE) is reported as “retained a greater degree of PD effect”. The “impact on cytokine reduction” value (muCD19 TCE) was “cytokine reduction can be seen” and the terminal elimination half-life [3] was roughly 1.47 h.
With “(pE-DGNEEMGKGMEENGDQC)4-PEG(20 kDa) ([pGlu]DGNEEMGKGMEENGDQC; also: four copies attached to PEG(20 kDa), site not given here)” the “koff” value [1] was 0.00195 s⁻¹, the elimination half-lives [4] was roughly 102 min and the IL-6 serum concentration (CD20 TCE; 0.010 mg/kg CD20 TCE + 0.016 mg/kg (25×)) was “moderate increase in IL-6 serum concentration for n=1 of 2 animals”. For the same substance, the IL-6 stimulation (CD20 TCE; 0.010 mg/kg CD20 TCE + 0.16 mg/kg (250×)) was “No IL-6 stimulation was observed”, the “difference in CD20 TCE cytolytic activity vs CD20 TCE control group” value (CD20 TCE; 0.010 mg/kg CD20 TCE IV) was “No apparent difference” and the “circulating CD20+ B lymphocytes” value (CD20 TCE; 0.010 mg/kg CD20 TCE IV alone or in combination) was “complete elimination”. For the same substance, the “reduction in peak serum MCP-1” value (CD20 TCE; 4 hr, 250× combo group, 0.010 mg/kg CD20 TCE IV) was ~ 98%, the “TNF-α and IFN-γ” value (CD20 TCE; CD20 TCE + 0.160 mg/kg, all time points, both animals) was “not detected above the assay LLOQ” and the IL-2 response (CD20 TCE; any group) was “No detectable IL-2 response”. The “T cell activation, early (CD69+) and late (CD25+) markers by flow cytometry” value (CD20 TCE; co-administration with 0.010 mg/kg CD20 TCE, 20 day study) was “pronounced effect on T cell activation” and the “C-reactive protein (CRP)” value (CD20 TCE; combo groups relative to CD20 TCE monotherapy 0.010 mg/kg IV) was “dose-dependent decrease in CRP”.
For “pE-DGNEELKGC (PEG)-NH2 [79675-1] ([pGlu]DGNEELKGC-NH2; also: PEG attached, size and site not given here in name)”, the Affinity ([5]; masking molecules of Example 12) was “High (an affinity indicated as Kd of about 0.05 to about 10 nM, typically 0.1 pM to 10 nM or 500 pM to 5 nM is considered of “high” affinity)”, the Affinity ([5]; masking molecules tested with respect to TCE of SEQ ID NO 255 (Table 20)) was “High (an affinity indicated as Kd of about 0.05 to about 10 nM, typically 0.1 pM to 10 nM or 500 pM to 5 nM is considered of “high” affinity)” and the “inhibition activity against TCE cytotoxicity (FIG. 15)” value [6] was “highest inhibition activity”.
In the case of “pGlu-DGEEELKGC (N-terminal pyroglutamate; VARIANT 1 Pyroglutamic acid)”, the IC50 (FLT3xCD3 TCE; solution competition) is reported as 14.7 nM, the IC50 (STEAP1xCD3 TCE) is reported as 28.6 nM and the “fast component for the off-rate” value ([7]; bivalent analyte model) is reported as 0.236 s⁻¹. The “fast component of the on-rate” value ([7]; bivalent analyte model) was 1.29e+06 M⁻¹ s⁻¹, the Kd ([7]; immobilized peptide, SS Affinity model) was 72.5 nM and the “ka” value [8] was 3.81e+06 M⁻¹ s⁻¹. For the same substance, the “kd” value [8] was 0.0624 s⁻¹, the Kd [9] was 20.5 nM and the “ka” value [9] was 2.64e+06 M⁻¹ s⁻¹. The “kd” value [9] was 0.0542 s⁻¹, the Kd [10] was 7.3 nM and the “ka” value [10] was 4.04e+06 M⁻¹ s⁻¹. For the same substance, the “kd” value [10] was 0.0295 s⁻¹, the Kd [11] was 27.4 nM and the “ka” value [11] was 3.04e+06 M⁻¹ s⁻¹. The “kd” value [11] was 0.0834 s⁻¹.
For pGlu-DGTEELKGC ([pGlu]DGTEELKGC), the “reduction in IC50 (FIG. 19)” value (FLT3xCD3 TCE; FLT3×CD3 TCE and STEAP1×CD3 TCE) was “negative example”, the “ka” value [9] was 4.81e+06 M⁻¹ s⁻¹ and the “kd” value [9] was 0.0713 s⁻¹. For the same substance, the “ka” value [10] was 3.21e+06 M⁻¹ s⁻¹, the “kd” value [10] was 0.0285 s⁻¹ and the “ka” value [11] was 2.09e+06 M⁻¹ s⁻¹. The “kd” value [11] was 0.0734 s⁻¹.
